Legend:
Assay type in all cases: cell-based, human
[1] = tested on: SEMK2 cells; experiment: FACS analysis (subG1), SEMK2; conditions: 1 μM
Procedure: (§1) At each time point, the cells were subjected to MTT assay (left), Caspase 3 activity assay (middle) and FACS analysis (right). The results of MTT and Caspase 3 activity assays are calculated as a ratio against the value for DMSO-treated cells. Vertical bar in each column indicates standard deviation determined by triplicate assays.
(§2) To determine the cause for the reduction in cell numbers, the 5-ITU-treated cells were subjected to assays determining apoptotic cell death (caspase 3 activity assay and FACS analysis).
(§3) Methods including Recombinant protein expression in K562 and in KG1 cells, RNA interference, Western blot analysis, and MTT assay, Caspase 3 Activity assay and FACS analysis are available in online Supporting Information.

[2] = tested on: SEMK2 cells; experiment: Caspase 3 activity assay, SEMK2; conditions: 1 μM, 24 hr, ratio vs DMSO
Procedure: as §1, §2, §3

[3] = tested on: RS4;11 cells; experiment: FACS analysis (subG1), RS4;11; conditions: 1 μM
Procedure: as §1, §2, §3

[4] = tested on: SEMK2 cells; experiment: MTT assay, SEMK2; conditions: SEMK2, t(4;11); 1 μM; 24, 48 and 72 hr; ratio vs DMSO
Procedure: as §1, §3

[5] = tested on: 697 cells; experiment: MTT assay, 697; conditions: 697 control cells lacking ALL1 abnormality; 1 μM; 24, 48 and 72 hr
Procedure: as §1, §3

[6] = tested on: RS4;11 cells; experiment: MTT assay, RS4;11; conditions: RS4;11, t(4;11); 1 μM; 24, 48 and 72 hr; ratio vs DMSO
Procedure: as §1, §3

[7] = tested on: 380 cells; experiment: MTT assay, 380; conditions: 380 control cells lacking ALL1 abnormality; 1 μM; 24, 48 and 72 hr
Procedure: as §1, §3

[8] = tested on: RS4;11 cells; experiment: Caspase 3 activity assay, RS4;11; conditions: 1 μM, 24 hr, ratio vs DMSO
Procedure: as §1, §2, §3

Structure (SMILES): Nc1ncnc2c1c(I)cn2[C@@H]1O[C@H](CO)[C@@H](O)[C@H]1O [5-ITU, 5-iodotubercidin]
- cells at the subG1 phase (FACS) [1]: high proportion
- caspase 3 activity [2]: Increased caspase 3 activity
- cells at the subG1 phase (FACS) [3]: high proportion
- cell number (MTT assay) [4]: reduction in numbers
- cell number (MTT assay) [5]: no diminution in the number
- cell number (MTT assay) [6]: reduction in numbers
- cell number (MTT assay) [7]: no diminution in the number
- caspase 3 activity [8]: Increased caspase 3 activity
